Data as given in patent publication US20240398829A1, “A COBALT-[…] AMINO ACID COMPLEX AND ITS USE FOR TREATING CANCER” (AMELIO BIOTECH CO., LTD., priority 2021, published 2024).
Values joined by “and” are separate entries in the source; they are usually repeats but may differ in a detail not shown here. Identical values can stand only once.

Columns and labels:
[1] = tested on: zebrafish liver; assay: Hepatoxicity assay in Tg(fabp10a:EGFP-mCherry) embryos; details: 10 μM, embryos treated from 3 dpf
Procedure: About 3 dpf, 50 embryos were distributed into 10 ml chemical solution/well (chemical/E3 solution) in 6-well plates until 5 dpf and new chemical solution was replaced every day. At 5 dpf, embryos were anesthetized with tricaine (0.016%) and the images of 8 to 10 embryos randomly per well were taken by ZEISS AxioCam MRc. There are three different images which one with auto exposure-time for the clearest view, one with fixed exposure-time to capture RFP (red fluorescent protein) intensity below saturation for intensity measurement and comparison, and the last one with sufficient exposure-time to show the whole liver region for size measurement. Image J software was then used to quantify intensity of RFP and liver size. Average RFP intensity in the liver was calculated and compared within the same group of lateral view fry under the same magnification and fixed exposure-time.
Images were analyzed by Image J software.

[2] = tested on: Hep3B hepatoma cells; assay: Xenotransplantation assay of cell proliferation in zebrafish embryos; format: in vivo, human; details: two days, zebrafish embryo xenotransplant
[3] = tested on: tert transgenic zebrafish; assay: H&E staining of liver cells of tert transgenic zebrafish; format: in vivo, zebrafish (Danio rerio); details: 15 dpf
Procedure: (§1) 50 zebrafish larva were placed in a fish tank with 800 ml of system water, the water were refreshed every day at 4 pm. From day 5 to day 15, AB(WT) and tert transgenic zebrafish were fed with normal larva food, plus 20 ml of Paramecium, and there must be 2 hours between meals, four meals a day. The last meal must be fed after 1 hour before the water changed. […] The fish were fasting for one days before collecting the samples for RNA extraction and hematoxylin-eosin (H&E) staining.
After 1 month of RO injection, the fish was sacrificed, and the liver was taken out and divided into two parts for RNA isolation and paraffin section. The liver tissues were frozen in liquid nitrogen immediately after sectioning and stored at −80° C. for later RNA isolation. For histochemistry analysis, liver tissues were fixed in a 10% formalin solution (Sigma-Aldrich Inc., St. Louis, MO, USA). The fixed tissue was embedded in paraffin, and sectioned at 5-μm thickness mounted on poly-L-lysine coated slides, and the sections were stained with hematoxylin and eosin (H&E stain), which this part was performed by the Pathology core facility.
H&E staining is mainly to observe the states of mitotic figures, […] cells, and macronucleated cells that represent hepatocyte undergoes carcinogenesis.

[4] = tested on: FaDu; assay: Cell proliferation assay II (MTS), FaDu; format: cell-based, human; details: 72 h, mean ± SD
Procedure: (§2) Human lung cancer cell line NCI-H226 was purchased from the American type culture collection (CRL-5826). NCI-H226 was grown in RPMI supplemented with 10% FBS in a humidified atmosphere containing 5% CO2 at 37° C. Human melanoma cell line A375, human pharynx squamous cell carcinoma FaDu, human cervical epithelioid carcinoma HeLa and human chronic myelogenous leukemia K-562 were purchased from Bioresource Collection and Research Center (BCRC), Hsinchu 300, Taiwan. A375 cells were grown in DMEM supplemented with 10% FBS in a humidified atmosphere 5% CO2 at 37° C. FaDu cells were grown in DMEM supplemented with 10% FBS in a humidified atmosphere 5% CO2 at 37° C. HeLa cell were grown in DMEM supplemented with 10% FBS in a humidified atmosphere 5% CO2 at 37° C. […]
(§3) MTS/PMS solution was freshly prepared and added (20 μl per well) into each well of 96-well cultured plate. The assay plate was incubated for 3 hours at 37° C., 5% CO2, under humidified atmosphere, and measured the absorbance at 490 nm using Multiskan™ GO Microplate Spectrophotometer (Thermo Fisher Scientific).
(§4) Corrected absorbance values were obtained by subtracting the average 490 nm absorbance of the negative control wells (medium only, no cell, as background control) from all other absorbance values. Percentage inhibition of cell growth for compound treatment was calculated using this formula: […]

[5] = tested on: U-87 MG cells; assay: Cell proliferation assay I (PrestoBlue), U-87 MG; format: cell-based, human; details: 72 h; for U-87 MG cell survival (%): vs control without drug
Procedure: (§5) U-87 MG cells (a human primary glioblastoma cell line) were cultured in MEM medium (Gibco, New York, NY, USA). A375 cells (a human melanoma cell line) and Huh7 cells (a human hepatocellular carcinoma (HCC) cell line) were cultured in DMEM medium (HyClone, Logan, UT, USA). The culture media were supplemented with 10% heat-inactivated fetal bovine serum (FBS), 1% penicillin/streptomycin and 1% […] (HyClone, Logan, UT, USA). Cells were seeded in 96-well plates at a density of 2000 cells/well. Then, cells were transferred to 37° C. incubator. […] At the end of incubation, the PrestoBlue™ Cell Viability Reagent (Invitrogen, Eugene, OR, USA) was distributed to cells. The plates were incubated for 90 min at 37° C. in a humidified, 5% CO2 atmosphere and the fluorescence was then recorded at Ex/Em: 560 nm/590 nm. Triplicate experiments were performed.

[6] = tested on: HeLa; assay: Cell proliferation assay II (MTS), HeLa; format: cell-based, human; details: 72 h, mean ± SD
Procedure: as §2, §3, §4

[7] = tested on: NCI-H226; assay: Cell proliferation assay II (MTS), NCI-H226; format: cell-based, human; details: NCI-H226, 72 h, mean ± SD
Procedure: as §2, §3, §4

[8] = tested on: ccne1, cdk1, cdk2, myca, mycb, ccnd1; assay: qPCR of cell proliferation markers and beta-catenin downstream target genes in tert transgenic zebrafish; format: in vivo, zebrafish (Danio rerio); details: 0.5×(50 μM), 15 dpf, vs untreated
Procedure: as §1
Total RNA was isolated by NucleoSpin® RNA kit ([…]-NAGEL, USA). […]
The resulting first-strand cDNA was used as a template for […] PCR in triplicate by using the SYBR Green Q-PCR Master Mix Kit (Applied Biosystems) using an ABI PRISM 7900 System. After normalization to internal control actin, the expression ratio between the experimental and control groups was calculated using the comparative Ct method. The relative expression ratio (fold change) was calculated based on ΔΔCt, ΔΔCt=(Cttarget−Ctactin)treatment−(Cttarget−Ctactin)control, and fold change=2^−ΔΔ^Ct. […] At least three independent samples were used for Q-PCR, and the standard error was calculated and incorporated into the presented data as […]±standard error. Differences among variables were assessed by a two-tailed Student's t test. […]

[9] = tested on: A375; assay: Cell proliferation assay II (MTS), A375; format: cell-based, human; details: A375, 72 h, mean ± SD
Procedure: as §2, §3, §4

[10] = tested on: U87; assay: Cell proliferation assay II (MTS), U87; format: cell-based, human; details: U87, 72 h, mean ± SD
Procedure: as §2, §3, §4

[11] = tested on: Huh7 cells; assay: Cell proliferation assay I (PrestoBlue), Huh7; format: cell-based, human; details: 72 h; for Huh7 cell survival (%): vs control without drug
Procedure: as §5

[12] = tested on: A375 cells; assay: Cell proliferation assay I (PrestoBlue), A375; format: cell-based, human; details: 72 h; for A375 cell survival (%): vs control without drug
Procedure: as §5

[13] = tested on: K-562; assay: Cell proliferation assay II (MTS), K-562; format: cell-based, human; details: K-562, 72 h, mean ± SD
Procedure: as §2, §3, §4

For `CNC(=O)c1cc(Oc2ccc(NC(=O)Nc3ccc(Cl)c(C(F)(F)F)c3)cc2)ccn1` [Sorafenib], the “liver size vs DMSO treated control” value [1] was “significantly reduce liver size”.
For “cobalt-containing glutamic acid (COGA) complex”, the “hepatoma cell proliferation compared to the DMSO treatment” value ([2]; 0.5×(50 μM)) was “significantly reduced”, the “hepatoma cell proliferation compared to the DMSO treatment” value ([2]; 1×(100 μM)) was “significantly reduced” and the “number of mitotic figures, trinucleated cells, and macronucleated cells” value [3] was “significantly reduced”. For the same compound, the IC50 [4] was 74.6 ± 63 µM, the “U-87 MG cell survival (%)” value ([5]; 5 nM) was 100% and 105% and 103% and the “U-87 MG cell survival (%)” value ([5]; 14 nM) was 95% and 97%. For the same compound, the “U-87 MG cell survival (%)” value ([5]; 41 nM) was 89% and 93%, the “U-87 MG cell survival (%)” value ([5]; 123 nM) was 89% and the “U-87 MG cell survival (%)” value ([5]; 370 nM) was 87% and 91% and 85%. For the same compound, the “U-87 MG cell survival (%)” value ([5]; 1111 nM) was 87% and 90% and 84%, the “U-87 MG cell survival (%)” value ([5]; 3333 nM) was 87% and 89% and 84% and the “U-87 MG cell survival (%)” value ([5]; 10000 nM) was 89% and 90% and 88%. For the same compound, the IC50 ([5]; U-87 MG cells) was over 10 µM, the IC50 [6] was 73.7 ± 19 µM and the IC50 [7] was 45 µM and 44.5 µM. The “expression of cell proliferation markers (ccne1, cdk1, cdk2) and beta-catenin downstream target genes (myca, mycb, ccnd1)” value [8] was “significantly reduced”, the IC50 [9] was 102 ± 2 µM and the IC50 [10] was 42 µM. For the same compound, the “Huh7 cell survival (%)” value ([11]; 5 nM) was 102% and 107% and 100%, the “Huh7 cell survival (%)” value ([11]; 14 nM) was 88% and 92% and 84% and the “Huh7 cell survival (%)” value ([11]; 41 nM) was 78% and 80% and 72%. For the same compound, the “Huh7 cell survival (%)” value ([11]; 123 nM) was 73% and 77% and 71%, the “Huh7 cell survival (%)” value ([11]; 370 nM) was 74% and 75% and 69% and the “Huh7 cell survival (%)” value ([11]; 1111 nM) was 82% and 79% and 73%. The “Huh7 cell survival (%)” value ([11]; 3333 nM) was 80% and 82% and 75%, the “Huh7 cell survival (%)” value ([11]; 10000 nM) was 89% and 92% and 82% and the IC50 ([11]; Huh7 cells) was 0.287 ± 0.0618 µM. For the same compound, the “A375 cell survival (%)” value ([12]; 5 nM) was 110% and 104% and 105%, the “A375 cell survival (%)” value ([12]; 14 nM) was 89% and 87% and 85% and the “A375 cell survival (%)” value ([12]; 41 nM) was 74% and 71% and 68%. For the same compound, the “A375 cell survival (%)” value ([12]; 123 nM) was 72% and 69% and 67%, the “A375 cell survival (%)” value ([12]; 370 nM) was 69% and 68% and 62% and the “A375 cell survival (%)” value ([12]; 1111 nM) was 70% and 71% and 67%. The “A375 cell survival (%)” value ([12]; 3333 nM) was 77% and 76% and 72%, the “A375 cell survival (%)” value ([12]; 10000 nM) was 89% and 88% and 84% and the IC50 ([12]; A375 cells) was 0.0687 ± 0.0158 µM. The IC50 [13] was 54.5 ± 4.4 µM.
